From patent publication EP0021678B1, “1-Sulpho-2-oxoazetidine derivatives, their production and pharmaceutical compositions thereof” (Takeda Chemical Industries, Ltd., priority 1979, dated 1981)
Like-named read-outs stand apart in the source and are kept apart here.

Experiments:
Assay in all cases: Anti-bacterial test, minimum inhibitory concentration on agar
Assay type in all cases: cell-based
[1] = test system: Escherichia coli NIHJ JC—2; details: Escherichia coli NIHJ JC—2, medium TSA
Description: (§1) The compound (I) thus obtained is useful as a drug, being active against certain gram-positive and gram-negative bacteria. By way of example, the compounds are active against the following micro-organisms.
(§2) The media and compounds employed in the anti-bacterial test are as follows: • Media: • TSA = Trypticase soy agar • [Baltimore Biologicals (U.S.A.)] • B-TSA = Blood trypticase soy agar • Compounds: • Compound A = Sodium 3-[2-(2-amino-4-thiazolyl)-2-methoxyiminoacetamido]-2-oxo-azetidine-1-sulphonate • Compound B = Sodium 3-[D(-)-N-(4-ethyl-2,3-dioxo-1-piperazinocarbonyl)-phenyl-glycin- amido]-2-oxoazetidine-1-sulphonate • Compound C = Sodium 3-[D(-)-N-(4-ethyl-2,3-dioxo-1-piperazinocarbonyl)phenylglycinamido]-3-methoxy-2-oxoazetidine-1-sulphonate • Compound D = Sodium 3-[2-(4-ethyl-2,3-dioxo-1-piperazinocarboxamido)-2-(2-amino-4-thiazolyl)-acetamido]-2-oxoazetidine-1-sulphonate • Compound E = Sodium 3-[DL-2-(4-ethyl-2,3-dioxo-1-piperazinocarboxamido)-2-thienylacetamido]-2-oxoazetidine-1-sulphonate • Compound F = Sodium 3-[D-2-(4-ethyl-2,3-dioxo-1-piperazinocarboxamido)-2-thienylacetamido]-2-oxoazetidine-1-sulphonate • Compound G = Sodium 3-[D-2-(4-n-octyl-2,3-dioxo-1-piperazinocarboxamido)-2-phenylacetamido]-2-oxoazetidine-1-sulphonate • Compound H = Sodium 3-[2-(4-n-octyl-2,3-dioxo-1-piperazinocarboxamido)-2-(2-amino-4-thiazolyl)-acetamido]-2-oxoazetidine-1-sulphonate • Compound I = Sodium 3-[D-2-[(2-oxo-3-furfurylideneaminoimidazolidin-1-yl)-carboxamido]-2-phenylacetamido]-2-oxoazetidine-1-sulphonate • Compound J = Sodium 3-[2-(4-n-octyl-2,3-dioxo-1-piperazinocarboxamido)-2-thienylacetamido]-2-oxoazetidine-1-sulphonate • Compound K = Sodium 3-[D-2-[[2-oxo-3-(thiophen-2-aidoimino)-imidazolidin-1-yl]-carboxamido]-2-phenylacetamido]-2-oxoazetidine-1-sulphonate • Compound L = Sodium 3-[2-[(2-oxo-3-furfurylideneaminoimidazolidin-1-yl)-carboxamido]-2-thienylacetamido]-2-oxoazetidine-1-sulphonate

[2] = test system: Bordetella bronchiseptica Sagami; details: Bordetella bronchiseptica Sagami, medium B—TSA
Description: as §1, §2

[3] = test system: Pseudomonas aeruginosa U 31; details: Pseudomonas aeruginosa U 31, medium TSA
Description: as §1, §2

Escherichia coli T-7 = details: for Minimum inhibitory concentration: medium TSA
Description: as §1, §2

Candida albicans TA = details: Candida albicans TA, medium TSA
Description: as §1, §2

[4] = test system: Staphylococcus aureus FDA209P; details: Staphylococcus aureus FDA209P; for MIC: Staphylococcus aureus, FDA209P, read-out: Minimum inhibitory concentration
Description: as §1, §2

[5] = test system: Staphylococcus aureus 1840; details: Staphylococcus aureus 1840, medium TSA
Description: as §1, §2

[6] = test system: Serratia marcescens IFO 12648; details: Serratia marcescens IFO 12648, medium TSA
Description: as §1, §2

[7] = test system: Staphylococcus aureus 308A—1; details: Staphylococcus aureus 308A—1, medium TSA
Description: as §1, §2

Escherichia coli O—111 = details: medium TSA
Description: as §1, §2

[8] = test system: Proteus vulgaris IFO 3988; details: Proteus vulgaris IFO 3988, medium TSA
Description: as §1, §2

[9] = test system: Streptococcus pyogenes E—14; details: Streptococcus pyogenes E—14, medium B—TSA
Description: as §1, §2

[10] = test system: Streptococcus pneumoniae Type I; details: Streptococcus pneumoniae Type I, medium B—TSA
Description: as §1, §2

[11] = test system: Enterobacter cloacae IFO 12937; details: Enterobacter cloacae IFO 12937, medium TSA
Description: as §1, §2

[12] = test system: Acinetobacter calcoaceticus IFO 13006; details: Acinetobacter calcoaceticus IFO 13006, medium TSA
Description: as §1, §2

[13] = test system: Proteus mirabilis IFO 3849; details: Proteus mirabilis IFO 3849, medium TSA
Description: as §1, §2

[14] = test system: Streptococcus pyogenes S—8; details: Streptococcus pyogenes S—8, medium B—TSA
Description: as §1, §2

Klebsiella pneumoniae DT = details: Klebsiella pneumoniae DT, medium TSA
Description: as §1, §2

[15] = test system: Pseudomonas aeruginosa IFO 3455; details: Pseudomonas aeruginosa IFO 3455, medium TSA
Description: as §1, §2

[16] = test system: Corynebacterium diphtheriae Toronto; details: Corynebacterium diphtheriae Toronto, medium B—TSA
Description: as §1, §2

[17] = test system: Proteus morganii IFO 3168; details: Proteus morganii IFO 3168, medium TSA
Description: as §1, §2

[18] = test system: Streptococcus mitis America; details: Streptococcus mitis America, medium B—TSA
Description: as §1, §2

[19] = test system: Streptococcus faecium IFO 3128; details: Streptococcus faecium IFO 3128, medium B—TSA
Description: as §1, §2

[20] = test system: Citrobacter freundii IFO 12681; details: Citrobacter freundii IFO 12681, medium TSA
Description: as §1, §2

[21] = read-out: Minimum inhibitory concentration

O=C(NC1CN(S(=O)(=O)[O-])C1=O)C(NC(=O)N1CCN(N=Cc2ccco2)C1=O)c1cccs1.[Na+] (stereo not shown) [Compound L, Sodium 3-[2-[(2-oxo-3-furfurylideneaminoimidazolidin-1-yl)-carboxamido]-2-thienylacetamido]-2-oxoazetidine-1-sulphonate]
Minimum inhibitory concentration [1]: 1.56 µg/mL
Minimum inhibitory concentration [2]: >100 µg/mL
Minimum inhibitory concentration [3]: >100 µg/mL
Minimum inhibitory concentration (Escherichia coli T-7): >100 µg/mL
Minimum inhibitory concentration (Candida albicans TA): >100 µg/mL
Minimum inhibitory concentration ([4]; medium B—TSA): 6.25 µg/mL
Minimum inhibitory concentration ([4]; medium TSA): 6.25 µg/mL
Minimum inhibitory concentration [5]: 25 µg/mL
Minimum inhibitory concentration [6]: 1.56 µg/mL
Minimum inhibitory concentration [7]: 3.13 µg/mL
Minimum inhibitory concentration (Escherichia coli O—111): <0.1 µg/mL
Minimum inhibitory concentration [8]: 0.2 µg/mL
Minimum inhibitory concentration [9]: 0.78 µg/mL
Minimum inhibitory concentration [10]: 1.56 µg/mL
Minimum inhibitory concentration [11]: 25 µg/mL
Minimum inhibitory concentration [12]: 50 µg/mL
Minimum inhibitory concentration [13]: 0.78 µg/mL
Minimum inhibitory concentration [14]: 0.78 µg/mL
Minimum inhibitory concentration (Klebsiella pneumoniae DT): <0.1 µg/mL
Minimum inhibitory concentration [15]: 3.13 µg/mL
Minimum inhibitory concentration [16]: 1.56 µg/mL
Minimum inhibitory concentration [17]: 12.5 µg/mL
Minimum inhibitory concentration [18]: 6.25 µg/mL
Minimum inhibitory concentration [19]: >100 µg/mL
Minimum inhibitory concentration [20]: 1.56 µg/mL

CCN1CCN(C(=O)NC(C(=O)NC2CN(S(=O)(=O)[O-])C2=O)c2cccs2)C(=O)C1=O.[Na+] (racemic) [Compound E, Sodium 3-[DL-2-(4-ethyl-2,3-dioxo-1-piperazinocarboxamido)-2-thienylacetamido]-2-oxoazetidine-1-sulphonate]
Minimum inhibitory concentration [1]: 1.56 µg/mL
Minimum inhibitory concentration [2]: >100 µg/mL
Minimum inhibitory concentration [3]: >100 µg/mL
Minimum inhibitory concentration (Escherichia coli T-7): >100 µg/mL
Minimum inhibitory concentration (Candida albicans TA): >100 µg/mL
Minimum inhibitory concentration ([4]; medium B—TSA): 6.25 µg/mL
Minimum inhibitory concentration ([4]; medium TSA): 6.25 µg/mL
Minimum inhibitory concentration [5]: 25 µg/mL
Minimum inhibitory concentration [6]: 3.13 µg/mL
Minimum inhibitory concentration [7]: 6.25 µg/mL
Minimum inhibitory concentration (Escherichia coli O—111): 0.2 µg/mL
Minimum inhibitory concentration [8]: <0.1 µg/mL
Minimum inhibitory concentration [9]: 1.56 µg/mL
Minimum inhibitory concentration [10]: 3.13 µg/mL
Minimum inhibitory concentration [11]: 3.13 µg/mL
Minimum inhibitory concentration [12]: 50 µg/mL
Minimum inhibitory concentration [13]: 0.78 µg/mL
Minimum inhibitory concentration [14]: 3.13 µg/mL
Minimum inhibitory concentration (Klebsiella pneumoniae DT): 0.78 µg/mL
Minimum inhibitory concentration [15]: 3.13 µg/mL
Minimum inhibitory concentration [16]: 0.39 µg/mL
Minimum inhibitory concentration [17]: 12.5 µg/mL
Minimum inhibitory concentration [18]: 25 µg/mL
Minimum inhibitory concentration [19]: >100 µg/mL
Minimum inhibitory concentration [20]: 3.13 µg/mL

CCN1CCN(C(=O)N[C@H](C(=O)NC2CN(S(=O)(=O)[O-])C2=O)c2cccs2)C(=O)C1=O.[Na+] (stereo partly drawn) [Compound F, Sodium 3-[D-2-(4-ethyl-2,3-dioxo-1-piperazinocarboxamido)-2-thienylacetamido]-2-oxoazetidine-1-sulphonate]
Minimum inhibitory concentration [1]: 0.78 µg/mL
Minimum inhibitory concentration [2]: >100 µg/mL
Minimum inhibitory concentration [3]: >100 µg/mL
Minimum inhibitory concentration (Escherichia coli T-7): >100 µg/mL
Minimum inhibitory concentration (Candida albicans TA): >100 µg/mL
Minimum inhibitory concentration ([4]; medium B—TSA): 6.25 µg/mL
Minimum inhibitory concentration ([4]; medium TSA): 6.25 µg/mL
Minimum inhibitory concentration [5]: 25 µg/mL
Minimum inhibitory concentration [6]: 1.56 µg/mL
Minimum inhibitory concentration [7]: 6.25 µg/mL
Minimum inhibitory concentration (Escherichia coli O—111): 0.2 µg/mL
Minimum inhibitory concentration [8]: <0.1 µg/mL
Minimum inhibitory concentration [9]: 3.13 µg/mL
Minimum inhibitory concentration [10]: 6.25 µg/mL
Minimum inhibitory concentration [11]: 50 µg/mL
Minimum inhibitory concentration [12]: 25 µg/mL
Minimum inhibitory concentration [13]: 0.78 µg/mL
Minimum inhibitory concentration [14]: 3.13 µg/mL
Minimum inhibitory concentration (Klebsiella pneumoniae DT): 0.2 µg/mL
Minimum inhibitory concentration [15]: 6.25 µg/mL
Minimum inhibitory concentration [16]: 0.78 µg/mL
Minimum inhibitory concentration [17]: 12.5 µg/mL
Minimum inhibitory concentration [18]: 25 µg/mL
Minimum inhibitory concentration [19]: >100 µg/mL
Minimum inhibitory concentration [20]: 1.56 µg/mL

CCCCCCCCN1CCN(C(=O)N[C@@H](C(=O)NC2CN(S(=O)(=O)O)C2=O)c2ccccc2)C(=O)C1=O (stereo partly drawn) [Compound G, Sodium 3-[D-2-(4-n-octyl-2,3-dioxo-1-piperazinocarboxamido)-2-phenylacetamido]-2-oxoazetidine-1-sulphonate]
MIC [1, 21]: 3.13 µg/mL
MIC [2, 21]: > 100 µg/mL
MIC ([3]; U31, read-out: Minimum inhibitory concentration): 25 µg/mL
MIC (Escherichia coli T-7; T7, medium TSA): > 100 µg/mL
MIC (Candida albicans TA; [21]): > 100 µg/mL
MIC ([4]; medium B—TSA): 3.13 µg/mL
MIC ([4]; medium TSA): 1.56 µg/mL
MIC [5, 21]: 25 µg/mL
MIC ([6]; IFO12648, read-out: Minimum inhibitory concentration): 1.56 µg/mL
MIC [7, 21]: 0.78 µg/mL
MIC (Escherichia coli O—111): 0.78 µg/mL
MIC ([8]; IFO3988, read-out: Minimum inhibitory concentration): 0.78 µg/mL
MIC [9, 21]: 1.56 µg/mL
MIC [10, 21]: 3.13 µg/mL
MIC ([11]; IFO12937, read-out: Minimum inhibitory concentration): 6.25 µg/mL
MIC ([12]; IFO13006, read-out: Minimum inhibitory concentration): 3.13 µg/mL
MIC ([13]; IFO3849, read-out: Minimum inhibitory concentration): 3.13 µg/mL
MIC [14, 21]: 1.56 µg/mL
MIC (Klebsiella pneumoniae DT; [21]): 0.78 µg/mL
MIC ([15]; IFO3455, read-out: Minimum inhibitory concentration): 1.56 µg/mL
MIC [16, 21]: 25 µg/mL
MIC ([17]; Morganella morganii, IFO3168, read-out: Minimum inhibitory concentration): 1.56 µg/mL
MIC [18, 21]: 25 µg/mL
MIC ([19]; Enterococcus faecium, IFO3128, read-out: Minimum inhibitory concentration): > 100 µg/mL
MIC ([20]; IFO12681, read-out: Minimum inhibitory concentration): 3.13 µg/mL
